{"source": "patent USRE42700E1", "about": "“Induction of apoptosis in cancer cells” (Sanford-Burnham Medical Research Institute, priority 2001, dated 2011)", "key": {"[1]": {"test_system": "leukemic blasts from patient 1", "assay": "leukemia colony formation in methylcellulose", "type": "cell-based, human", "settings": "14 days", "procedure": "Leukemia Colony Formation: Leukemic blasts (1×10^5 cells) from patient 1 (Table 1) were isolated as described above and cultured in methylcellulose supplemented with 20% FCS, SCF, and IL-3, GM-CSF and G-CSF at a final concentration of 10 ng per ml, cells were incubated for 14 days at 37° C. in a 5% CO2 humidified atmosphere in the presence and absence of 3-Cl-AHPC after which time colonies (>40 cells) were counted."}, "[2]": {"test_system": "mouse mammary adenocarcinoma 16/C", "assay": "mouse mammary adenocarcinoma 16/C in syngeneic female C3H mice", "procedure": "The ability of 3-Cl-AHPC to inhibit the in vivo growth of breast carcinoma cells was tested using syngeneic mouse mammary and human breast adenocarcinoma SCID xenograft models."}, "[3]": {"settings": "total dose 44 mg/kg, days 1-4, 6-8"}, "[4]": {"settings": "total dose 89 mg/kg, days 1-4, 6-8"}, "[5]": {"settings": "total dose 178 mg/kg, days 1-4, 6, 8"}}, "data": [{"smiles": "O=C(O)/C=C/c1ccc(-c2ccc(O)c(C34CC5CC(CC(C5)C3)C4)c2)c(Cl)c1", "note": "[Example 3-Cl-AHPC, (E)-4-[3-(1-Adamantyl)-4-hydroxyphenyl]-3-chlorocinnamic acid]", "values": [{"measurement": "concentration for complete inhibition of leukemia colony formation", "setting": "[1]", "value": 600, "unit": "nM"}, {"measurement": "IC50", "setting": "[1]; Homo sapiens, 336 h, patient 1, read-out: inhibition of leukemia colony formation, ED50 (IC50)", "value": 0.375, "unit": "µM"}, {"measurement": "inhibition of tumor growth", "setting": "[2]; T/C=20%", "value": 80, "unit": "%"}, {"measurement": "toxicity as evidenced by weight loss of the mice", "setting": "[2]; compared to AHPN", "value": "minimal toxicity"}, {"measurement": "% body wt. loss", "setting": "[2]; [3]", "value": 4, "unit": "%"}, {"measurement": "Drug deaths", "setting": "[2]; [3]", "value": "0/5"}, {"measurement": "T/C %", "setting": "[2]; [3]", "value": ">100", "unit": "%"}, {"measurement": "% body wt. loss", "setting": "[2]; [4]", "value": "−3", "unit": "%"}, {"measurement": "Drug deaths", "setting": "[2]; [4]", "value": "0/5"}, {"measurement": "T/C %", "setting": "[2]; [4]", "value": 47, "unit": "%"}, {"measurement": "% body wt. loss", "setting": "[2]; [5]", "value": "−4", "unit": "%"}, {"measurement": "Drug deaths", "setting": "[2]; [5]", "value": "0/5"}, {"measurement": "Log cell kill", "setting": "[2]; [5]", "value": 0.9}, {"measurement": "T/C %", "setting": "[2]; [5]", "value": 20, "unit": "%"}]}]}
